In US20230312587A1, “PTERIDINONE COMPOUNDS AND USES THEREOF” (Vertex Pharmaceutical Incorporated, priority 2018, published 2023):
Read-outs that look alike come from different tables or passages of the source.

System: β-catenin-TCF-mediated reporter transcription activity in Colo 205 cells
Assay: Colo 205 reporter assay (TCF/LEF luciferase)
Assay type: cell-based
Conditions: Colo 205 TCF/LEF luciferase reporter, read-out: TCF reporter Colo205 IC50
Summary of the method: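 Luciferase signal from a TCF/LEF-driven reporter, stably integrated in Colo 205 colon cancer cells, was measured 5 h after compound addition.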

[1] = Homo sapiens, COLO 205, 5 h, five hours after addition of compound

| Structure (SMILES) | IC50 [1] | also measured |
| --- | --- | --- |
| Cc1nc(NCc2cnn(Cc3ccc(OC(F)(F)F)nc3)c2)nc2c1NC(=O)[C@H](C(C)C)N2C [Compound 510, (S)-7-isopropyl-4,8-dimethyl-2-(((1-((6-(trifluoromethoxy)pyridin-3-yl)methyl)-1H-pyrazol-4-yl)methyl)amino)-7,8-dihydropteridin-6(5H)-one] | < 300 nM |  |
| CO[C@H](C)[C@H]1C(=O)Nc2c(C)nc(NCc3cnn(Cc4ccc(C(F)(F)F)nc4)c3)nc2N1C [Compound 498, (S)-7-((R)-1-methoxyethyl)-4,8-dimethyl-2-(((1-((6-(trifluoromethyl)pyridin-3-yl)methyl)-1H-pyrazol-4-yl)methyl)amino)-7,8-dihydropteridin-6(5H)-one] | < 300 nM |  |
| C#Cc1cccc(OC[C@H]2C[C@@H](Nc3nc(C)c4c(n3)N(C)[C@@H](C)C(=O)N4)C2)c1 [Compound 283, (7S)-2-((cis-3-((3-ethynylphenoxy)methyl)cyclobutyl)amino)-4,7,8-trimethyl-7,8-dihydropteridin-6(5H)-one] | < 300 nM |  |
| Cc1nc(N[C@H]2C[C@H](Sc3cc(F)c(F)c(F)c3)C2)nc2c1N(C)C(=O)[C@H](C)N2C [Compound 330, (7S)-4,5,7,8-tetramethyl-2-((trans-3-((3,4,5-trifluorophenyl)thio)-cyclobutyl)amino)-7,8-dihydropteridin-6(5H)-one] | 300 to 1000 nM |  |
| Cc1nc(NCc2cnn(Cc3ccc(C(C)(C)C)nc3)c2)nc2c1NC(=O)[C@H](C(C)C)N2C [Compound 469, (S)-2-(((1-((6-(tert-butyl)pyridin-3-yl)methyl)-1H-pyrazol-4-yl)methyl)amino)-7-isopropyl-4,8-dimethyl-7,8-dihydropteridin-6(5H)-one] | < 300 nM |  |
| Cc1nc(NC2CN(C(=O)CC3CC4CCC3C4)C2)nc2c1NC(=O)[C@H](C(C)C)N2C (stereo partly drawn) [Compound 623, (7S)-2-((1-(2-(bicyclo[2.2.1]heptan-2-yl)acetyl)azetidin-3-yl)amino)-7-isopropyl-4,8-dimethyl-7,8-dihydropteridin-6(5H)-one] | 300 to 1000 nM |  |
| COCC[C@@H]1C(=O)Nc2c(C)nc(NCc3cnn(Cc4ccc(C(F)(F)F)nc4)c3)nc2N1C [Compound I-1647] |  | IC50 (Homo sapiens, COLO 205, 5 h, R-isomer at C2 (corresponding to C2 S-isomer), 5 h): 1000 to 5000 nM |
| Cc1nc(N[C@H]2C[C@H](Oc3ccc(F)cc3F)C2)nc2c1NC(=O)[C@H](C)N2C (relative stereo) [Compound 295, (7S)-4,7,8-trimethyl-2-((trans-3-(2,4-drifluorophenoxy)cyclobutyl)amino)-7,8-dihydropteridin-6(5H)-one] |  | IC50 (five hours after addition of compound): < 300 nM |
| Cc1nn(Cc2ccc(F)cc2)cc1CNc1nc(C)c2c(n1)N(C)[C@@H](C)C(=O)N2 [Compound 73, (7S)-2-(((1-(4-fluorobenzyl)-3-methyl-1H-pyrazol-4-yl)methyl)amino)-4,7,8-trimethyl-7,8-dihydropteridin-6(5H)-one] | < 300 nM |  |
| Cc1nc(NC2CN(C(=O)[C@@H](C)c3ccccc3)C2)nc2c1NC(=O)[C@H](C(C)C)N2C [Compound 641, (S)-7-isopropyl-4,8-dimethyl-2-((1-((S)-2-phenylpropanoyl)azetidin-3-yl)amino)-7,8-dihydropteridin-6(5H)-one] | ≥ 5000 nM |  |
| C[C@H]1C(=O)Nc2c(CO)nc(NCc3cnn(Cc4ccc(C(F)(F)F)nc4)c3)nc2N1C [Compound 487, (7S)-4-(hydroxymethyl)-7,8-dimethyl-2-(((1-((6-(trifluoromethyl)pyridin-3-yl)methyl)-1H-pyrazol-4-yl)methyl)amino)-7,8-dihydropteridin-6(5H)-one] | 300 to 1000 nM |  |
| CCN1C(=O)[C@H](C)N(C)c2nc(N[C@H]3C[C@H](Oc4cc(F)c(F)c(F)c4)C3)nc(C)c21 [Compound 312, (7S)-5-ethyl-4,7,8-trimethyl-2-((trans-3-(3,4,5-trifluorophenoxy)-cyclobutyl)amino)-7,8-dihydropteridin-6(5H)-one] | < 300 nM |  |
| Cc1nc(NCc2cnn(Cc3ccc(Cl)nc3)c2)nc2c1NC(=O)[C@H](C)N2C [Compound 194, (7S)-2-(((1-((6-chloropyridin-3-yl)methyl)-1H-pyrazol-4-yl)methyl)amino)-4,7,8-trimethyl-7,8-dihydropteridin-6(5H)-one] | < 300 nM |  |
| Cc1nc(NC2CN(C(=O)c3cnon3)C2)nc2c1NC(=O)[C@H](C(C)C)N2C [Compound 617, (S)-2-((1-(1,2,5-oxadiazole-3-carbonyl)azetidin-3-yl)amino)-7-isopropyl-4,8-dimethyl-7,8-dihydropteridin-6(5H)-one] | ≥ 5000 nM |  |
| Cc1nc(NCc2cnn(CC(C)(C)c3ccc(F)cc3)c2)nc2c1NC(=O)[C@H](C)N2C [Compound 92, (7S)-2-(((1-(2-(4-fluorophenyl)-2-methylpropyl)-1H-pyrazol-4-yl)methyl)amino)-4,7,8-trimethyl-7,8-dihydropteridin-6(5H)-one] | < 300 nM |  |
| Cc1cc(C(F)(F)F)cc(OC[C@H]2C[C@@H](Nc3nc(C)c4c(n3)N(C)[C@@H](C)C(=O)N4)C2)n1 [Compound 365, (7S)-4,7,8-trimethyl-2-((cis-3-(((6-methyl-4-(trifluoromethyl)pyridin-2-yl)oxy)methyl)cyclobutyl)amino)-7,8-dihydropteridin-6(5H)-one] | < 300 nM |  |
| C[C@H]1C(=O)Nc2cnc(NCc3cnn(CCCc4ccc(F)cc4)c3)nc2N1C [Compound 110, (7S)-2-(((1-(3-(4-fluorophenyl)propyl)-1H-pyrazol-4-yl)methyl)amino)-7,8-dimethyl-7,8-dihydropteridin-6(5H)-one] | 300 to 1000 nM |  |
| CO[C@H](C)[C@H]1C(=O)Nc2c(C)nc(N[C@H]3C[C@@H](Cn4ccc(C(F)(F)F)n4)C3)nc2N1C [Compound 691, (S)-7-((R)-1-methoxyethyl)-4,8-dimethyl-2-((cis-3-((3-(trifluoromethyl)-1H-pyrazol-1-yl)methyl)cyclobutyl)amino)-7,8-dihydropteridin-6(5H)-one] | < 300 nM |  |
| Cc1nc(NC2CN(C(=O)c3cc(F)c(F)c(F)c3)C2)nc2c1NC(=O)[C@H](C)N2C [Compound 740, (S)-4,7,8-trimethyl-2-((1-(3,4,5-trifluorobenzoyl)azetidin-3-yl)amino)-7,8-dihydropteridin-6(5H)-one] | 300 to 1000 nM |  |
| COC1(C2C(=O)Nc3c(C)nc(N[C@H]4C[C@H](Oc5cnc(C(F)(F)F)nc5)C4)nc3N2C)CCC1 (relative stereo) [Compound 718, 7-(1-methoxycyclobutyl)-4,8-dimethyl-2-((trans-3-((2-(trifluoromethyl)pyrimidin-5-yl)oxy)cyclobutyl)amino)-7,8-dihydropteridin-6(5H)-one] | < 300 nM |  |
| CCN1C(=O)[C@H](CCO)N(CC)c2nc(NCc3cnn(Cc4ccc(F)cc4)c3)ncc21 [Compound 38, (7S)-5,8-diethyl-2-(((1-(4-fluorobenzyl)-1H-pyrazol-4-yl)methyl)amino)-7-(2-hydroxyethyl)-7,8-dihydropteridin-6(5H)-one] | < 300 nM |  |
| CC(=O)c1nc(C(F)(F)F)ccc1Cn1cc(CNc2nc(C)c3c(n2)N(C)[C@@H](C)C(=O)N3)cn1 [Compound 413, (7S)-2-(((1-((2-acetyl-6-(trifluoromethyl)pyridin-3-yl)methyl)-1H-pyrazol-4-yl)methyl)amino)-4,7,8-trimethyl-7,8-dihydropteridin-6(5H)-one] | < 300 nM |  |
| Cc1nc(CC(=O)N2CC(Nc3nc(C)c4c(n3)N(C)[C@@H](C(C)C)C(=O)N4)C2)c(C)s1 [Compound 628, (S)-2-((1-(2-(2,5-dimethylthiazol-4-yl)acetyl)azetidin-3-yl)amino)-7-isopropyl-4,8-dimethyl-7,8-dihydropteridin-6(5H)-one] | ≥ 5000 nM |  |
| Cc1nc(NC2CN(C(=O)Cc3ccc(C(F)(F)F)nc3)C2)nc2c1NC(=O)[C@H](C(C)C)N2C [Compound 594, (S)-7-isopropyl-4,8-dimethyl-2-((1-(2-(6-(trifluoromethyl)pyridin-3-yl)acetyl)azetidin-3-yl)amino)-7,8-dihydropteridin-6(5H)-one] | 1000 to 5000 nM |  |
| CC[C@H]1C(=O)Nc2c(C)nc(N[C@H]3C[C@@H](CNc4cnc(C(F)(F)F)cn4)C3)nc2N1C [Compound 713, (S)-7-ethyl-4,8-dimethyl-2-((cis-3-(((5-(trifluoromethyl)pyrazin-2-yl)amino)methyl)cyclobutyl)amino)-7,8-dihydropteridin-6(5H)-one] | < 300 nM |  |
| Cc1nc(NC2CN(Cc3ccc(C(F)(F)F)nc3)C2)nc2c1NC(=O)[C@H](C(C)C)N2C [Compound 649, (S)-7-isopropyl-4,8-dimethyl-2-((1-((6-(trifluoromethyl)pyridin-3-yl)methyl)azetidin-3-yl)amino)-7,8-dihydropteridin-6(5H)-one] | < 300 nM |  |
| COc1ccc(O[C@H]2C[C@H](Nc3nc(C)c4c(n3)N(C)[C@@H](C)C(=O)N4C)C2)c(F)c1 [Compound 355, (7S)-2-((trans-3-(2-fluoro-4-methoxyphenoxy)cyclobutyl)amino)-4,5,7,8-tetramethyl-7,8-dihydropteridin-6(5H)-one] | 1000 to 5000 nM |  |
| Cc1nc(NC2CN(C(=O)C34CC(C(F)(F)F)(C3)C4)C2)nc2c1NC(=O)[C@H](C(C)C)N2C [Compound 699, (S)-7-isopropyl-4,8-dimethyl-2-((1-(3-(trifluoromethyl)bicyclo[1.1.1]pentane-1-carbonyl)azetidin-3-yl)amino)-7,8-dihydropteridin-6(5H)-one] | 1000 to 5000 nM |  |
| Cc1nc(NCc2cnn(Cc3ccc(Cl)nc3)c2)nc2c1NC(=O)[C@H](C1CCC1)N2C [Compound 566, (7S)-2-(((1-((6-chloropyridin-3-yl)methyl)-1H-pyrazol-4-yl)methyl)amino)-7-cyclobutyl-4,8-dimethyl-7,8-dihydropteridin-6(5H)-one] | < 300 nM |  |
| Cc1nc(N[C@H]2C[C@H](NC(=O)Nc3ccc(F)c(F)c3F)C2)nc2c1NC(=O)[C@H](C)N2C [Compound 461, 1-(2,3,4-trifluorophenyl)-3-(trans-3-(((S)-4,7,8-trimethyl-6-oxo-5,6,7,8-tetrahydropteridin-2-yl)amino)cyclobutyl)urea] | 1000 to 5000 nM |  |
